From US11767341B2, “Lincosamide antibiotics and uses thereof” (President and Fellows of Harvard College, priority 2017, dated 2023)
In brackets after ≈: the same amount, converted by molar mass.

Tested on: S. aureus ATCC 29213
Experiment: MIC determination
Format: cell-based
Conditions: Staphylococcus aureus, ATCC29213

SMILES	MIC [µg/mL]
CSC1O[C@H]([C@H](NC(=O)[C@H]2NC[C@@H]3C[C@H]4OC(C)(C)O[C@H]4CO[C@H]32)[C@H](C)Cl)C(O)[C@@H](O)[C@H]1O (stereo partly drawn) [FSA-501099]	> 64
CSC1O[C@H]([C@H](NC(=O)[C@H]2NC[C@@H]3C[C@@H](O)[C@@H](O)CO[C@H]32)[C@H](C)Cl)C(O)[C@@H](O)[C@H]1O (stereo partly drawn) [FSA-501076]	> 64

Tested on: S. aureus BAA 977 iErmA
Experiment: MIC determination
Format: cell-based
Conditions: Staphylococcus aureus, BAA977

SMILES	MIC [µg/mL]
CSC1O[C@H]([C@H](NC(=O)[C@H]2NC[C@@H]3C[C@H]4OC(C)(C)O[C@H]4CO[C@H]32)[C@H](C)Cl)C(O)[C@@H](O)[C@H]1O (stereo partly drawn) [FSA-501099]	> 64
CSC1O[C@H]([C@H](NC(=O)[C@H]2NC[C@@H]3C[C@@H](O)[C@@H](O)CO[C@H]32)[C@H](C)Cl)C(O)[C@@H](O)[C@H]1O (stereo partly drawn) [FSA-501076]	> 64

Tested on: S. aureus MP-549 msr(a) USA 300
Experiment: MIC determination
Format: cell-based
Conditions: Staphylococcus aureus, USA300, S. aureus MP-549 msr(a) USA 300

SMILES	MIC [µg/mL]
CSC1O[C@H]([C@H](NC(=O)[C@H]2NC[C@@H]3C[C@H]4OC(C)(C)O[C@H]4CO[C@H]32)[C@H](C)Cl)C(O)[C@@H](O)[C@H]1O (stereo partly drawn) [FSA-501099]	> 64
CSC1O[C@H]([C@H](NC(=O)[C@H]2NC[C@@H]3C[C@@H](O)[C@@H](O)CO[C@H]32)[C@H](C)Cl)C(O)[C@@H](O)[C@H]1O (stereo partly drawn) [FSA-501076]	> 64

Tested on: S. aureus MP-513 clinical cErm
Experiment: MIC determination
Format: cell-based
Conditions: Staphylococcus aureus

SMILES	MIC [µg/mL]
CSC1O[C@H]([C@H](NC(=O)[C@H]2NC[C@@H]3C[C@H]4OC(C)(C)O[C@H]4CO[C@H]32)[C@H](C)Cl)C(O)[C@@H](O)[C@H]1O (stereo partly drawn) [FSA-501099]	> 64
CSC1O[C@H]([C@H](NC(=O)[C@H]2NC[C@@H]3C[C@@H](O)[C@@H](O)CO[C@H]32)[C@H](C)Cl)C(O)[C@@H](O)[C@H]1O (stereo partly drawn) [FSA-501076]	> 64

Tested on: S. aureus UNT96, NRS710, MP-618 (USA 100, Erythro >8)
Experiment: MIC determination
Format: cell-based
Conditions: Staphylococcus aureus

SMILES	MIC [µg/mL]
CSC1O[C@H]([C@H](NC(=O)[C@H]2NC[C@@H]3C[C@H]4OC(C)(C)O[C@H]4CO[C@H]32)[C@H](C)Cl)C(O)[C@@H](O)[C@H]1O (stereo partly drawn) [FSA-501099]	> 64
CSC1O[C@H]([C@H](NC(=O)[C@H]2NC[C@@H]3C[C@@H](O)[C@@H](O)CO[C@H]32)[C@H](C)Cl)C(O)[C@@H](O)[C@H]1O (stereo partly drawn) [FSA-501076]	> 64

Tested on: S. aureus UNT-146, MP-620, TP 506 (ermA)
Experiment: MIC determination
Format: cell-based
Conditions: Staphylococcus aureus

SMILES	MIC [µg/mL]
CSC1O[C@H]([C@H](NC(=O)[C@H]2NC[C@@H]3C[C@H]4OC(C)(C)O[C@H]4CO[C@H]32)[C@H](C)Cl)C(O)[C@@H](O)[C@H]1O (stereo partly drawn) [FSA-501099]	> 64
CSC1O[C@H]([C@H](NC(=O)[C@H]2NC[C@@H]3C[C@@H](O)[C@@H](O)CO[C@H]32)[C@H](C)Cl)C(O)[C@@H](O)[C@H]1O (stereo partly drawn) [FSA-501076]	> 64

Tested on: S. aureus UNT-120, MP-619, NRS22 (USA 600, GISA)
Experiment: MIC determination
Format: cell-based
Conditions: Staphylococcus aureus

SMILES	MIC [µg/mL]
CSC1O[C@H]([C@H](NC(=O)[C@H]2NC[C@@H]3C[C@H]4OC(C)(C)O[C@H]4CO[C@H]32)[C@H](C)Cl)C(O)[C@@H](O)[C@H]1O (stereo partly drawn) [FSA-501099]	> 64
CSC1O[C@H]([C@H](NC(=O)[C@H]2NC[C@@H]3C[C@@H](O)[C@@H](O)CO[C@H]32)[C@H](C)Cl)C(O)[C@@H](O)[C@H]1O (stereo partly drawn) [FSA-501076]	> 64

Tested on: S. pneumoniae ATCC 49619
Experiment: MIC determination
Format: cell-based
Conditions: Streptococcus pneumoniae, ATCC49619; S. pneumoniae ATCC 49619; read-out: MIC

SMILES	MIC [µg/mL]
CSC1O[C@H]([C@H](NC(=O)[C@H]2NC[C@@H]3C[C@H]4OC(C)(C)O[C@H]4CO[C@H]32)[C@H](C)Cl)C(O)[C@@H](O)[C@H]1O (stereo partly drawn) [FSA-501099]	8 (≈ 15.7 µM)
CSC1O[C@H]([C@H](NC(=O)[C@H]2NC[C@@H]3C[C@@H](O)[C@@H](O)CO[C@H]32)[C@H](C)Cl)C(O)[C@@H](O)[C@H]1O (stereo partly drawn) [FSA-501076]	64 (≈ 136 µM)

Tested on: S. pneumoniae UNT-038, MP-626, TP 160 (mefA)
Experiment: MIC determination
Format: cell-based
Conditions: Streptococcus pneumoniae

SMILES	MIC [µg/mL]
CSC1O[C@H]([C@H](NC(=O)[C@H]2NC[C@@H]3C[C@H]4OC(C)(C)O[C@H]4CO[C@H]32)[C@H](C)Cl)C(O)[C@@H](O)[C@H]1O (stereo partly drawn) [FSA-501099]	16 (≈ 31.3 µM)
CSC1O[C@H]([C@H](NC(=O)[C@H]2NC[C@@H]3C[C@@H](O)[C@@H](O)CO[C@H]32)[C@H](C)Cl)C(O)[C@@H](O)[C@H]1O (stereo partly drawn) [FSA-501076]	64 (≈ 136 µM)

Tested on: S. pneumoniae UNT-039, MP-627, TP1517 (mefA)
Experiment: MIC determination
Format: cell-based
Conditions: Streptococcus pneumoniae

SMILES	MIC [µg/mL]
CSC1O[C@H]([C@H](NC(=O)[C@H]2NC[C@@H]3C[C@H]4OC(C)(C)O[C@H]4CO[C@H]32)[C@H](C)Cl)C(O)[C@@H](O)[C@H]1O (stereo partly drawn) [FSA-501099]	2 (≈ 3.91 µM)
CSC1O[C@H]([C@H](NC(=O)[C@H]2NC[C@@H]3C[C@@H](O)[C@@H](O)CO[C@H]32)[C@H](C)Cl)C(O)[C@@H](O)[C@H]1O (stereo partly drawn) [FSA-501076]	32 (≈ 67.9 µM)

Tested on: S. pyogenes ATCC 19615
Experiment: MIC determination
Format: cell-based
Conditions: Streptococcus pyogenes, ATCC19615

SMILES	MIC [µg/mL]
CSC1O[C@H]([C@H](NC(=O)[C@H]2NC[C@@H]3C[C@@H](O)[C@@H](O)CO[C@H]32)[C@H](C)Cl)C(O)[C@@H](O)[C@H]1O (stereo partly drawn) [FSA-501076]	> 64

Same assay, conditions: Streptococcus pyogenes, ATCC19615; S. pyogenes ATCC 19615; read-out: MIC

SMILES	MIC [µg/mL]
CSC1O[C@H]([C@H](NC(=O)[C@H]2NC[C@@H]3C[C@H]4OC(C)(C)O[C@H]4CO[C@H]32)[C@H](C)Cl)C(O)[C@@H](O)[C@H]1O (stereo partly drawn) [FSA-501099]	16 (≈ 31.3 µM)

Tested on: S. pyogenes UNT-014, MP-625 MacRes
Experiment: MIC determination
Format: cell-based
Conditions: Streptococcus pyogenes

SMILES	MIC [µg/mL]
CSC1O[C@H]([C@H](NC(=O)[C@H]2NC[C@@H]3C[C@@H](O)[C@@H](O)CO[C@H]32)[C@H](C)Cl)C(O)[C@@H](O)[C@H]1O (stereo partly drawn) [FSA-501076]	> 64

Same assay, conditions: Streptococcus pyogenes; S. pyogenes UNT-014, MP-625 MacRes; read-out: MIC

SMILES	MIC [µg/mL]
CSC1O[C@H]([C@H](NC(=O)[C@H]2NC[C@@H]3C[C@H]4OC(C)(C)O[C@H]4CO[C@H]32)[C@H](C)Cl)C(O)[C@@H](O)[C@H]1O (stereo partly drawn) [FSA-501099]	29 (≈ 56.7 µM)

Tested on: E. faecalis ATCC 29212
Experiment: MIC determination
Format: cell-based
Conditions: Enterococcus faecalis, ATCC29212

SMILES	MIC [µg/mL]
CSC1O[C@H]([C@H](NC(=O)[C@H]2NC[C@@H]3C[C@H]4OC(C)(C)O[C@H]4CO[C@H]32)[C@H](C)Cl)C(O)[C@@H](O)[C@H]1O (stereo partly drawn) [FSA-501099]	> 64
CSC1O[C@H]([C@H](NC(=O)[C@H]2NC[C@@H]3C[C@@H](O)[C@@H](O)CO[C@H]32)[C@H](C)Cl)C(O)[C@@H](O)[C@H]1O (stereo partly drawn) [FSA-501076]	> 64

Tested on: E. faecalis UNT-047 VRE
Experiment: MIC determination
Format: cell-based
Conditions: Enterococcus faecalis, VRE

SMILES	MIC [µg/mL]
CSC1O[C@H]([C@H](NC(=O)[C@H]2NC[C@@H]3C[C@H]4OC(C)(C)O[C@H]4CO[C@H]32)[C@H](C)Cl)C(O)[C@@H](O)[C@H]1O (stereo partly drawn) [FSA-501099]	> 64
CSC1O[C@H]([C@H](NC(=O)[C@H]2NC[C@@H]3C[C@@H](O)[C@@H](O)CO[C@H]32)[C@H](C)Cl)C(O)[C@@H](O)[C@H]1O (stereo partly drawn) [FSA-501076]	> 64

Tested on: K. pneumoniae ATCC 10031
Experiment: MIC determination
Format: cell-based
Conditions: Klebsiella pneumoniae, ATCC10031

SMILES	MIC [µg/mL]
CSC1O[C@H]([C@H](NC(=O)[C@H]2NC[C@@H]3C[C@H]4OC(C)(C)O[C@H]4CO[C@H]32)[C@H](C)Cl)C(O)[C@@H](O)[C@H]1O (stereo partly drawn) [FSA-501099]	> 64
CSC1O[C@H]([C@H](NC(=O)[C@H]2NC[C@@H]3C[C@@H](O)[C@@H](O)CO[C@H]32)[C@H](C)Cl)C(O)[C@@H](O)[C@H]1O (stereo partly drawn) [FSA-501076]	> 64

Tested on: E. coli ATCC 25922
Experiment: MIC determination
Format: cell-based
Conditions: Escherichia coli, ATCC25922

SMILES	MIC [µg/mL]
CSC1O[C@H]([C@H](NC(=O)[C@H]2NC[C@@H]3C[C@H]4OC(C)(C)O[C@H]4CO[C@H]32)[C@H](C)Cl)C(O)[C@@H](O)[C@H]1O (stereo partly drawn) [FSA-501099]	> 64
CSC1O[C@H]([C@H](NC(=O)[C@H]2NC[C@@H]3C[C@@H](O)[C@@H](O)CO[C@H]32)[C@H](C)Cl)C(O)[C@@H](O)[C@H]1O (stereo partly drawn) [FSA-501076]	> 64

Tested on: E. coli MP-9 ΔTolC
Experiment: MIC determination
Format: cell-based
Conditions: Escherichia coli

SMILES	MIC [µg/mL]
CSC1O[C@H]([C@H](NC(=O)[C@H]2NC[C@@H]3C[C@H]4OC(C)(C)O[C@H]4CO[C@H]32)[C@H](C)Cl)C(O)[C@@H](O)[C@H]1O (stereo partly drawn) [FSA-501099]	> 64
CSC1O[C@H]([C@H](NC(=O)[C@H]2NC[C@@H]3C[C@@H](O)[C@@H](O)CO[C@H]32)[C@H](C)Cl)C(O)[C@@H](O)[C@H]1O (stereo partly drawn) [FSA-501076]	> 64

Tested on: P. aeruginosa ATCC 27853
Experiment: MIC determination
Format: cell-based
Conditions: Pseudomonas aeruginosa, ATCC27853

SMILES	MIC [µg/mL]
CSC1O[C@H]([C@H](NC(=O)[C@H]2NC[C@@H]3C[C@H]4OC(C)(C)O[C@H]4CO[C@H]32)[C@H](C)Cl)C(O)[C@@H](O)[C@H]1O (stereo partly drawn) [FSA-501099]	> 64
CSC1O[C@H]([C@H](NC(=O)[C@H]2NC[C@@H]3C[C@@H](O)[C@@H](O)CO[C@H]32)[C@H](C)Cl)C(O)[C@@H](O)[C@H]1O (stereo partly drawn) [FSA-501076]	> 64
